According to ChEMBL document CHEMBL1201862, “PubChem BioAssay data set” (2004):
Activity calls are given as the source filed them.

Experiments:
[1] = biological target: T1, DNA dC->dU-editing enzyme APOBEC-3G (Homo sapiens, UniProt Q9HC16); assay: Dose Response confirmation of small molecule APOBEC3G DNA Deaminase Inhibitors via a fluorescence-based single-stranded DNA deaminase assay. [Related pubchem assays (depositor defined):AID493012, AID493028]; format: functional
[2] = biological target: Peroxisome proliferator-activated receptor gamma/Nuclear receptor coactivator 3 (Homo sapiens, UniProt P37231); assay: TR-FRET dose response biochemical High Throughput Screening assay for agonists of the steroid receptor coactivator 3 (SRC-3) recruitment by the peroxisome proliferator-activated receptor gamma (PPAR gamma): non-selective agonists. [Related pubchem assays: 1301 (Confirmation screen.), 1048 (Primary screen.)]; format: functional
[3] = biological target: Peroxisome proliferator-activated receptor gamma/Nuclear receptor coactivator 2 (Homo sapiens, UniProt P37231); assay: (§1) TR-FRET dose response biochemical High Throughput Screening assay for agonists of the steroid receptor coactivator 2 (SRC-2) recruitment by the peroxisome proliferator-activated receptor gamma (PPAR gamma): non-selective agonists. [Related pubchem assays: 1297, 1032 ]; format: functional
[4] = biological target: Peroxisome proliferator-activated receptor gamma/Nuclear receptor coactivator 1 (Homo sapiens, UniProt P37231); assay: as §1, with “1 (SRC-1)” for “2 (SRC-2)”, “assays (depositor defined):AID1300, AID1808, AID504735, AID631]” for “assays: 1297, 1032 ]”; format: protein assay
Trypsin = Trypsin (Sus scrofa, UniProt P00761); assay: porcine trypsin inhibitors, dose response, selectivity assay for Rce1 protease inhibitor project, biochemical, quenched peptide fluorescence, cherry-pick (AID 488789)
[5] = cytotoxicity in HEK-293T cells, dose response, cytotoxicity control for BCR NF-kB inhibitor project, luminescence, B-cell screen hits (AID 489021); format: functional, cell-based;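 note: HEK-293T cells carrying an NF-kB luciferase reporter; cells exposed to compound for about 14 hours before viability readout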
[6] = biological target: DNA dC->dU-editing enzyme APOBEC-3A (Homo sapiens, UniProt P31941); assay: Dose Response confirmation of small molecule APOBEC3A DNA Deaminase Inhibitors via a fluorescence-based single-stranded DNA deaminase assay. [Related pubchem assays (depositor defined):AID493011, AID493024]; format: functional
[7] = biological target: T1, DNA dC->dU-editing enzyme APOBEC-3G; format: functional
[8] = biological target: Eukaryotic translation initiation factor 4H (Homo sapiens, UniProt Q15056); assay: human eIF4H binding inhibitors, primary screen, translation initiation inhibitor project, biochemical, uHTS, fluorescence polarization (AID 2012)
[9] = biological target: Polyadenylate-binding protein 1 (Homo sapiens, UniProt P11940); assay: PABP poly(A) RNA binding inhibitors, primary screen, biochemical, fluorescence polarization, uHTS (AID 2014)
[10] = biological target: T2, C-C chemokine receptor type 6 (Homo sapiens, UniProt P51684); assay: CCR6 receptor antagonists, dose response, cell-based, luminescent beta-arrestin readout (AID 504728); format: functional
T2 sequence (P51684 whole entry): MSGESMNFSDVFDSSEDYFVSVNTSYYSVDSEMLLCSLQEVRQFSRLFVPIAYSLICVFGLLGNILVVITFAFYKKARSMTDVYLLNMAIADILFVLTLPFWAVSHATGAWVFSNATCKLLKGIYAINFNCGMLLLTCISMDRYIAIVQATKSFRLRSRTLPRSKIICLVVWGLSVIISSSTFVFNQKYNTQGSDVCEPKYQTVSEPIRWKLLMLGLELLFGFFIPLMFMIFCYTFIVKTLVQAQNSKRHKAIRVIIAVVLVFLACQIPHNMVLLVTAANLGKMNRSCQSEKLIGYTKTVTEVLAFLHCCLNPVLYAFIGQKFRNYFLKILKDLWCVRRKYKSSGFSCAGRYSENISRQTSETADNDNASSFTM

Beta-galactosidase = Beta-galactosidase (Escherichia coli, UniProt Q8VNN2); assay: beta-galactosidase enzyme inhibitors and activators, dose response, artefact control for CCR6 antagonist project, biochemical, E. coli enzyme, set 3 (AID 504712); format: functional
cells [11] = format: functional, cell-based
Nonstructural protein 1 = Nonstructural protein 1 (Influenza A virus, UniProt Q194T2); format: functional, Influenza A virus (A/California/07/2009(H1N1))
[12] = biological target: Heat shock protein HSP 90-alpha (Homo sapiens, UniProt P07900); format: functional, organism-based
[13] = biological target: Disintegrin and metalloproteinase domain-containing protein 17 (Homo sapiens, UniProt P78536); assay: ADAM17 protease inhibitors, dose response, counter-screen for ADAM10 exosite inhibitor project, biochemical, quenched FRET substrate (AID 743253)
INS1 = assay: beta cell apoptosis inhibitors, cytokine rescue, dose response, luminescence, retest (AID 449756); format: functional, cell-based; conditions: Rattus norvegicus;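 note: cell death triggered by IL-1 beta plus TNF-alpha plus IFN-gamma mixture; protective hits raise ATP signal compared with cytokine alone wells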
cells [14] = format: functional, cell-based; remark: listed apart in the source

Sequence of Beta-galactosidase (Q8VNN2 whole entry): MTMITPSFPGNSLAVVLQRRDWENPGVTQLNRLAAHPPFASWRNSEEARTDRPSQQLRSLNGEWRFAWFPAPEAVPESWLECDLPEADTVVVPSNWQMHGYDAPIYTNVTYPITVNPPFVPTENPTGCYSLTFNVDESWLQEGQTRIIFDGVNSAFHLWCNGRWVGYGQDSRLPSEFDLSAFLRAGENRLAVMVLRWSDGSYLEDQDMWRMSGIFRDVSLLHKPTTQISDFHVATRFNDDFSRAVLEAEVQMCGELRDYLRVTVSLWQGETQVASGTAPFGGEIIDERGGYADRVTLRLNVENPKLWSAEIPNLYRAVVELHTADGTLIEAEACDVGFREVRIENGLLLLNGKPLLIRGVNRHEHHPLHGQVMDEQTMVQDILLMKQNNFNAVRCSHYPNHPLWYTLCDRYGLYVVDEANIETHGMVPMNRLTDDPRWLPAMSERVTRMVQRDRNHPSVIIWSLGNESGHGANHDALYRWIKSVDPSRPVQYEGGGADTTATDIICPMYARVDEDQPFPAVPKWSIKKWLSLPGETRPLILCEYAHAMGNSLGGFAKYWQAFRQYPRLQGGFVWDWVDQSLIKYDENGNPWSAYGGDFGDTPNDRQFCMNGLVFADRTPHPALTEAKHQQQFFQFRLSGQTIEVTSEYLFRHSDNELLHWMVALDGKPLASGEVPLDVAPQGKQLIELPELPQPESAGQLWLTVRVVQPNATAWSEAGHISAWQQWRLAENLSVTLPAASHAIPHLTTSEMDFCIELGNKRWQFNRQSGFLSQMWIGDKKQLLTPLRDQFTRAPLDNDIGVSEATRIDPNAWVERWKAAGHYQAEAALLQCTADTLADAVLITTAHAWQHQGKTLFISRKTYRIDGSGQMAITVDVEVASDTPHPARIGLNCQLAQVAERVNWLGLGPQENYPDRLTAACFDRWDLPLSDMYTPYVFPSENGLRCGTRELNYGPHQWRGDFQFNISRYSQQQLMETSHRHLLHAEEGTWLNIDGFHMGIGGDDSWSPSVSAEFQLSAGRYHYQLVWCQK
T1 sequence (Q9HC16 whole entry): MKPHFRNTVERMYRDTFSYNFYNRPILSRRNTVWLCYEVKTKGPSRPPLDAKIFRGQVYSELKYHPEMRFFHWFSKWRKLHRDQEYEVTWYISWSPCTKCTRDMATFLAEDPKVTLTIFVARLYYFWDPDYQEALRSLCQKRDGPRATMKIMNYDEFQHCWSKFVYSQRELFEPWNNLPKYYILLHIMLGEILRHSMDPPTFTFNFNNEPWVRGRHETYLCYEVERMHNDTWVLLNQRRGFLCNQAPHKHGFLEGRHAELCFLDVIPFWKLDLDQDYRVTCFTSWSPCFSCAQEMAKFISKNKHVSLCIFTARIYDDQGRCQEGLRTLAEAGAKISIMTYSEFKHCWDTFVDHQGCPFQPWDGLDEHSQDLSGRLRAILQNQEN
Sequence of Nonstructural protein 1 (Q194T2 whole entry): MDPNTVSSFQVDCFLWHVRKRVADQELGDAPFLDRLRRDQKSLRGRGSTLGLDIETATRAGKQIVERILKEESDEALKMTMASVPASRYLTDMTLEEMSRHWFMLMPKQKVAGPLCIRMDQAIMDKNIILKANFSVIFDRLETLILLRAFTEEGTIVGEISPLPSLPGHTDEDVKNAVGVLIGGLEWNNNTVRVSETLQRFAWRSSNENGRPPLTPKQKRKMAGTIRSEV
Sequence of Trypsin (P00761 whole entry): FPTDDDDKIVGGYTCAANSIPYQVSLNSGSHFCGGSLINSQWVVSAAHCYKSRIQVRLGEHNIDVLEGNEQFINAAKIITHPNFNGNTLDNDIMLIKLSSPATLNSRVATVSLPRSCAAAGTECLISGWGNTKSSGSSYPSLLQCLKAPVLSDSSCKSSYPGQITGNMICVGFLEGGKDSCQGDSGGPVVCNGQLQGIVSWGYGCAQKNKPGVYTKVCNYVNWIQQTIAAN
Sequence of DNA dC->dU-editing enzyme APOBEC-3A (P31941 whole entry): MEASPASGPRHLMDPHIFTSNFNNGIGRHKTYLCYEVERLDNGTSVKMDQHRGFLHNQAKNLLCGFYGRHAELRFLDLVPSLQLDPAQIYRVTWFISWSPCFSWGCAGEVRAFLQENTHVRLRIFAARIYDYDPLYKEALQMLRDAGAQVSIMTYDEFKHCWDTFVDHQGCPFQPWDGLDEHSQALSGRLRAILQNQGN
Sequence of Polyadenylate-binding protein 1 (P11940 whole entry): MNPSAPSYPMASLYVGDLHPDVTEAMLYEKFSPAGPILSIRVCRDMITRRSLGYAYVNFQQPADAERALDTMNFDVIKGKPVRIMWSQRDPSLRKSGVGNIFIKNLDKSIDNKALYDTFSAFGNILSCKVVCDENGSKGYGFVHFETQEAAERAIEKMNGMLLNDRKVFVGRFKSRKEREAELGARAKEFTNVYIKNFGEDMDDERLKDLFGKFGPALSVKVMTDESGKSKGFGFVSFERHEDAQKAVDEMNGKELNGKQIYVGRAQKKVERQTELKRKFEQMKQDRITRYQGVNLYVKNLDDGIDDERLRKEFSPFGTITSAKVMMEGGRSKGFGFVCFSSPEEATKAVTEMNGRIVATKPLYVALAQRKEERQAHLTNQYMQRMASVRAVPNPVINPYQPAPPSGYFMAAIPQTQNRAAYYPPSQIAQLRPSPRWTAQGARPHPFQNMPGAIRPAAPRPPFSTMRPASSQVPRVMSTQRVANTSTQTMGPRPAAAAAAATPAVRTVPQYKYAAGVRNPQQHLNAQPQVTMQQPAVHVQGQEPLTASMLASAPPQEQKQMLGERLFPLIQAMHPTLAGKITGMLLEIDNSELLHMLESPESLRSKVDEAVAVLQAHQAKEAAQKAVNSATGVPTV
Sequence of Disintegrin and metalloproteinase domain-containing protein 17 (P78536 whole entry, the tested form may be a part): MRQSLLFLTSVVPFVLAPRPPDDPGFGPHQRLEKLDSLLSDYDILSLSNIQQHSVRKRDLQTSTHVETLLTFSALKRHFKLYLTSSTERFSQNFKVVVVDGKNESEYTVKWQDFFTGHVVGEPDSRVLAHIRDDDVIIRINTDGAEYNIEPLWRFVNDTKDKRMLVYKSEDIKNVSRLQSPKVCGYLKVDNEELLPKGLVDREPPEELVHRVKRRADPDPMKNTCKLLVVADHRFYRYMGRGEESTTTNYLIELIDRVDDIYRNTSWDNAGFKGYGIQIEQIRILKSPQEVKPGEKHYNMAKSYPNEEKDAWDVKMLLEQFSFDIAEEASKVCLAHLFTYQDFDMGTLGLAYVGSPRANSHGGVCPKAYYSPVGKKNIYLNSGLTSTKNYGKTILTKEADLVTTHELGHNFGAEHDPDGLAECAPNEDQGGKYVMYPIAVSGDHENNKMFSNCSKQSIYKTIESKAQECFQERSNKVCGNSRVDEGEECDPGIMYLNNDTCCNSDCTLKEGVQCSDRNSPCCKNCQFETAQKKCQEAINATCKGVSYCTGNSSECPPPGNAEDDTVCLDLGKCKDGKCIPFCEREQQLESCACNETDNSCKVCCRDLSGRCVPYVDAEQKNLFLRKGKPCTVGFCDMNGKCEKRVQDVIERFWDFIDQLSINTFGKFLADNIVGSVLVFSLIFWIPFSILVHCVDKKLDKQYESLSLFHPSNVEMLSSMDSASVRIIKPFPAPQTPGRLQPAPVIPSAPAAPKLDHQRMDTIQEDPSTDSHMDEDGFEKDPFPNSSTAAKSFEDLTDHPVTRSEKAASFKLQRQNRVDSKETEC

## CCOC(=O)c1sc(NC(=O)C(C)C)c(C#N)c1C
[1]
  IC50: 39.3 µM (active)

## S=c1[nH]nc(-c2ccccc2)o1
[2]
  EC50: > 79.4 µM (not active)
[3]
  EC50: 8.1 µM (active)
[4]
  EC50: 16.2 µM (inactive)
Trypsin
  AC50: 13.3 µM (active)

## COc1ccc(C(=O)Nc2ccc(OC)c([N+](=O)[O-])c2)cc1Br
[5]
  IC50: > 80 µM (inactive)

## C[n+]1ccc(-c2ccncc2)cc1
[6]
  IC50: 2.02 µM (active)
[7]
  IC50: 2.53 µM (active)
[8]
  IC50: 82.2 µM (active)
[9]
  IC50: 7.33 µM (active)

## CN(CC(=O)Nc1ccc(OC(F)F)cc1)S(=O)(=O)/C=C/c1ccccc1
[10]
  IC50: > 66.6 µM (inactive)
Beta-galactosidase
  IC50: > 66.6 µM (inactive)

## O=[N+]([O-])c1ccc(O)c(/C=N/Nc2ccccn2)c1
[10]
  IC50: > 66.6 µM (inactive)
Cells [11]
  EC50: > 350 µM (not active)
Nonstructural protein 1
  IC50: 7.05 µM (active)
Beta-galactosidase
  IC50: > 66.6 µM (inactive)
[12]
  AC50: 3.97 µM (active)
[13]
  IC50: 9.75 µM (active)
INS1
  AC50: 0.342 µM (active)
Cells [14]
  EC50: > 350 µM (not active)
